Experiments:
human PDGFRβ = biological target: T1, human PDGFRβ (Homo sapiens, UniProt P09619); assay: PDGF dependent cell proliferation (MTS); assay type: cell-based; conditions: PDGFRβ NIH-3T3 cells, PDGF BB 50 ng/ml, 72 hours, serum-free medium; read-out: GI50 nM (PDGF ligand-dependent cell proliferation)
T1 construct: expressed in transfected cells
Method: PDGF Dependent Cell Proliferation:
NIH-3T3 mouse fibroblasts cell line engineered to stably express human PDGFIRβ was constructed and used to evaluate PDGF dependent cell proliferation. PDGFRβ NIH-3T3 cells were plated into 96-well plates at 5,000 per well and incubated with serum-free medium for 24 hours. Compounds and PDGF BB (50 ng/ml) were added and incubated for 72 hours in serum-free medium. The effects on proliferation were determined by addition of MTS reagent (Promega) according to the instruction, incubation for 2 hours at 37° C. in CO2 incubator, and record the absorbance at 490 nm using an ELISA plate reader.

HUVEC cells = assay: VEGF dependent cell proliferation (MTS); assay type: cell-based; conditions: Homo sapiens, VEGF 165 50 ng/ml, 72 hours, serum-free medium, read-out: GI50 nM (VEGF ligand-dependent cell proliferation)
Method: VEGF Dependent Cell Proliferation:
HUVEC cells were plated into 96-well plates at 6,000 per well and incubated with serum-free medium for 2 hours. Compounds and VEGF 165 (50 ng/ml) were added and incubated for 72 hours in serum-free medium. The effects on proliferation were determined by addition of MTS reagent (Promega) according to the instruction, incubation for 2 hours at 37° C. in CO2 incubator, and record the absorbance at 490 nm using an ELISA plate reader.

[1] = test system: total HDAC enzyme (HeLa extract); assay: In vitro inhibition of total HDAC enzyme activity (HDAC Fluorimetric Assay/Drug Discovery Kit); assay type: biochemical
Method: Measurement of In Vitro Inhibition of Total HDAC Enzyme Activity:
The in vitro inhibition of total HDAC enzyme was determined by HDAC Fluorimetric Assay/Drug Discovery Kit (BIOMOL) according to manufacture's instruction. • 1. Add Assay buffer, diluted trichostatin A or test inhibitor to appropriate wells of the microtiter plate. Following table lists examples of various assay types and the additions required for each test.
• 2. Add diluted HeLa extract or other HDAC sample to all wells except those that are to be “No Enzyme Controls” (Blank). • 3. Allow diluted Fluor de Lys™ Substrate and the samples in the microtiter plate to equilibrate to assay temperature (25° C.). • 4. Initiate HDAC reactions by adding diluted substrate (25 μl) to each well and mixing thoroughly. • 5. Allow HDAC reactions to proceed for desired length of time and then stop them by addition of Fluor de Lys™ Developer (50 μl). Incubate plate at room temperature (25° C.) for 10-15 min. • 6. Read samples in a microtiter-plate reading fluorimeter capable of excitation at a wavelength in the range 350-380 nm and detection of emitted light in the range 440-460 nm. Measurement of In Vivo Inhibition of HDAC Subtype Activity: […]

Class I HDAC = assay: P21 reporter gene assay in HeLa cells; assay type: cell-based; conditions: 24 hours
Method: HDAC subtype selectivity inhibition assay of tested compounds was carried out by several reporter gene assays experiments. Briefly, HeLa cells were seeded in 96-well plates the day before transfection to give a confluence of 50-80%. Cells were transfected with one of reporter gene plasmid containing a promoter sequence or response element upstream of a luciferase gene construct using FuGene6 transfection reagent according to the manufacturer's instruction (Roche). The promoters or response elements including p21-promoter was fused upstream to the luciferase gene reporter construct. For normalizing the transfection efficiency, a GFP expression plasmid was cotransfected. Cells were allowed to express protein for 24 hours followed by addition of individual compounds or the vehicle (DMSO). 24 hours later the cells were harvested, and the luciferase assay and GFP assay were performed using corresponding assay kits according to the manufacturer's instructions (Promega).

A-498 = assay: Tumor cell proliferation (MTS), A-498; assay type: cell-based; conditions: Homo sapiens, A498; 72 hours, complete medium
Method: (§1) Measurement of In Vivo Cell Proliferation:
(§2) Tumor cells were trypsinized and plated into 96-well plates at 3,000 per well and incubated in complete medium with 10% FBS for 24 hours. Compounds were added over a final concentration range of 100 μmol/L to 100 nmol/L in 0.1% DMSO and incubated for 72 hours in complete medium. The effects on proliferation were determined by addition of MTS reagent (Promega) according to the instruction, incubation for 2 hours at 37° C. in CO2 incubator, and record the absorbance at 490 nm using an ELISA plate reader.

A549 = assay: Tumor cell proliferation (MTS), A549; assay type: cell-based; conditions: Homo sapiens, 72 hours, complete medium
Method: as §1, §2
(§3) Human Cell Lines are Listed Below:
A549: Non small cell lung carcinoma

Bel-7402 = assay: Tumor cell proliferation (MTS), Bel-7402; assay type: cell-based; conditions: Homo sapiens, 72 hours, complete medium
Method: as §1, §2, §3
Bel-7402: Hepatocellular carcinoma

HCT-8 = assay: Tumor cell proliferation (MTS), HCT-8; assay type: cell-based; conditions: Homo sapiens, 72 hours, complete medium
Method: as §1, §2, §3
HCT-8: Ileocecal colorectal adenocarcinoma

MCF-7 = assay: Tumor cell proliferation (MTS), MCF-7; assay type: cell-based; conditions: Homo sapiens, MCF7; 72 hours, complete medium
Method: as §1, §2, §3
MCF-7: Mammary gland adenocarcinoma

[2] = test system: human HCT-8 colon cancer xenograft; assay: Antitumor activity of compounds 33 and 34, HCT-8 xenograft (Example 54); assay type: in vivo, nu/nu mice
Method: (§4) The antitumor activity of compound 33 and compound 34 were measured in human HCT-8 colon cancer xenograft model. The female nu/nu mice of 18˜20 g were fed by normal diet for 3 days. Then the cultured HCT-8 human colon cancer cells were implanted into the armpit of 50 mice. When tumors had reached approximately 100 mm^3, the mice were divided into 6 groups randomly. Each group has 8 mice. One group was treated with vehicle. One group was treated with sutent, the positive control drug. Two groups were treated with compound 33. The other two groups were treated with compound 34. Each group was dosed orally once a day for 20 days. Tumor volumes as established by caliper measurements were recorded twice per week, along with body weights. At the end of study, the mice were killed, and tumors were weighed. The tumor growth inhibition of each group was calculated using the formula {[(the average tumor weight of vehicle group)−(the average tumor weight of drug group)]/(the average tumor weight of vehicle group)}×100%.

[3] = Body weight in HCT-8 xenograft study (Example 54); assay type: in vivo, nu/nu mice
Method: as §4

[4] = test system: human SSMC7721 liver cancer xenograft; assay: Antitumor activity of compound 31, SSMC7721 xenograft (Example 53); assay type: in vivo, nu/nu mice; conditions: 40 mg/kg orally once a day for 30 days
Method: (§5) The antitumor activity of compound 31 was measured in human SSMC7721 liver cancer xenograft model. The female nu/nu mice of 18˜20 g were fed by normal diet for 3 days. Then the cultured SSMC7721 human liver cancer cells were implanted into the armpit of 50 mice. […] One group was treated with vehicle. One group was treated with sutent, the positive control drug. […] Each group was dosed orally once a day for 30 days. Tumor volumes as established by caliper measurements were recorded twice per week, along with body weights. At the end of study, the mice were killed, and tumors were weighed. The tumor growth inhibition of each group was calculated using the formula {[(the average tumor weight of vehicle group)−(the average tumor weight of drug group)]/(the average tumor weight of vehicle group)}×100%.

[5] = test system: human HCT-8 colon cancer xenograft; assay: Antitumor activity of compounds 33 and 37, HCT-8 xenograft (Example 55); assay type: in vivo, nu/nu mice; conditions: 40 mg/kg orally once a day for 20 days
Method: as §4, with “37” for “34”, “When tumors had reached approximately 100 mm^3, the mice were divided into 6 groups randomly. Each group has 8 mice.” left out, “37. Compound 33 was administered twice a day with an interval of 6 hours. Other drugs and vehicle were administered once a day.” for “34.”, “orally” for “orally once a day”

[6] = Body weight in A549 xenograft study (Example 51); assay type: in vivo, nu/nu mice; conditions: 40 mg/kg orally once a day for 24 days
Method: The antitumor activity of compound 31 was measured in human A549 lung cancer xenograft model. […] Then the cultured A549 human lung cancer cells were implanted into the armpit of 50 mice. When tumors had reached approximately 6 mm in diameter, the mice were divided into 6 groups randomly. Each group has 8 mice. One group was treated with vehicle. One group was treated with sutent, the positive control drug. […] Each group was dosed orally once a day for 24 days. Tumor volumes as established by caliper measurements were recorded twice per week, along with body weights. At the end of study, the mice were killed, and tumors were weighed. The tumor growth inhibition of each group was calculated using the formula {[(the average tumor weight of vehicle group)-(the average tumor weight of drug group)]/(the average tumor weight of vehicle group)}×100%.

[7] = Body weight in HCT-8 xenograft study (Example 52); assay type: in vivo, nu/nu mice; conditions: 40 mg/kg orally once a day for 20 days
Method: as §4, with “31 was” for “33 and compound 34 were”, “Two groups were treated with compound 33. The other two groups were treated with compound 34.” left out

[8] = Body weight in SSMC7721 xenograft study (Example 53); assay type: in vivo, nu/nu mice; conditions: 40 mg/kg orally once a day for 30 days
Method: as §5

[9] = Body weight in HCT-8 xenograft study (Example 55); assay type: in vivo, nu/nu mice; conditions: 40 mg/kg orally once a day for 20 days
Method: as §4, with “37” for “34”, “When tumors had reached approximately 100 mm^3, the mice were divided into 6 groups randomly. Each group has 8 mice.” left out, “37. Compound 33 was administered twice a day with an interval of 6 hours. Other drugs and vehicle were administered once a day.” for “34.”, “orally” for “orally once a day”

[10] = Body weight in SSMC7721 xenograft study (Example 56); assay type: in vivo, nu/nu mice; conditions: 40 mg/kg orally once a day for 30 days
Method: The antitumor activity of compound 33 and compound 37 were measured in human SSMC7721 liver cancer xenograft model. The female nu/nu mice of 18˜20 g were fed by normal diet for 3 days. Then the cultured SSMC7721 human liver cancer cells were implanted into the armpit of 50 mice. […] Each group has 8 mice. One group was treated with vehicle. One group was treated with sutent, the positive control drug. Two groups were treated with compound 33. The other two groups were treated with compound 37. Each group was dosed orally once a day for 30 days. Tumor volumes as established by caliper measurements were recorded twice per week, along with body weights. At the end of study, the mice were killed, and tumors were weighed. The tumor growth inhibition of each group was calculated using the formula {[(the average tumor weight of vehicle group)−(the average tumor weight of drug group)]/(the average tumor weight of vehicle group)}×100%.

[11] = 30 mg/kg orally once a day for 20 days
[12] = 60 mg/kg orally once a day for 20 days
[13] = 40 mg/kg orally once a day for 20 days

T1 sequence (P09619 33-1106): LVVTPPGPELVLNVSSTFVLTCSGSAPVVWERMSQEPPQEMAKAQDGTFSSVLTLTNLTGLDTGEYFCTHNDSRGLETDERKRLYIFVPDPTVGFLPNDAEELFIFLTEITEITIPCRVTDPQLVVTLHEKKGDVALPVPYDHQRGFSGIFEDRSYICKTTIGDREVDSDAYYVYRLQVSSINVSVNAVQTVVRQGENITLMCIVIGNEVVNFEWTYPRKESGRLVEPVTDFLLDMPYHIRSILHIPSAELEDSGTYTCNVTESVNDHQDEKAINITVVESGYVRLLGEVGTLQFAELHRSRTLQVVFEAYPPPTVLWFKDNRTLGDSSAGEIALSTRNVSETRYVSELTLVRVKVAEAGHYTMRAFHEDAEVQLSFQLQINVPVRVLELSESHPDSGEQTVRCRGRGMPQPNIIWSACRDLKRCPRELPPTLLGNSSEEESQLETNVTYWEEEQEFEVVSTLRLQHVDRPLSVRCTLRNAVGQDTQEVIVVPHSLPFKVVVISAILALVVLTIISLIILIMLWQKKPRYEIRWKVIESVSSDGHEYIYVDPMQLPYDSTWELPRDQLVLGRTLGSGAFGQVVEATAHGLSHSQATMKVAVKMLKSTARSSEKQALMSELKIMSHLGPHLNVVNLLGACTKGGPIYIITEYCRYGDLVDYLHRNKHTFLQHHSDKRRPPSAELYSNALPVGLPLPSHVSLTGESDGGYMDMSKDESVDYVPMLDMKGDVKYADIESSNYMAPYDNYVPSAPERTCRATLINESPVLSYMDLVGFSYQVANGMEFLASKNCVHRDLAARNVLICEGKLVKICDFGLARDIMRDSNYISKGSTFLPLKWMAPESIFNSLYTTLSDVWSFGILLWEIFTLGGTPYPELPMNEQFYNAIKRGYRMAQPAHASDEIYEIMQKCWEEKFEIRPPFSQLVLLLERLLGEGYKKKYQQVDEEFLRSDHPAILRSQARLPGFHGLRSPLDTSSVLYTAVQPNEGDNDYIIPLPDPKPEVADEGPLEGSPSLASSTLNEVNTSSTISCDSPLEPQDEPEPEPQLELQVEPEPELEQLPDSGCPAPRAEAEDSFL

COc1ccc2c(Oc3ccc4c(C(=O)NCc5ccc(C(=O)Nc6ccccc6N)cn5)cccc4c3)ccnc2c1 [Example 34]
GI50 (human PDGFRβ): 248 nM
GI50 (HUVEC cells): 90 nM
% inhibition of total HDAC enzyme activity at 30 μM [1]: 38.8%
Class I HDAC (P21 reporter assay) Fold Induction at 10 μM (Class I HDAC): 5.0 Fold
GI50 (A-498): 7.9 µM
GI50 (A549): 11.2 µM
GI50 (Bel-7402): 17.7 µM
GI50 (HCT-8): 5.5 µM
GI50 (MCF-7): 5.2 µM
TGI (%) Tumor growth inhibition [2, 11]: 3.07%
Tumor weight [2, 11]: 3.95 ± 0.73 g
TGI (%) Tumor growth inhibition [2, 12]: 32.7%
Tumor weight [2, 12]: 2.74 ± 0.77 g
Body weight (g) end [3, 11]: 21.2 ± 1.9 g
Body weight (g) start [3, 11]: 19.7 ± 1.2 g
Body weight (g) end [3, 12]: 21.6 ± 2.3 g
Body weight (g) start [3, 12]: 19.6 ± 1.1 g

CCN(CC)CCNC(=O)c1c(C)[nH]c(/C=C2\C(=O)Nc3ccc(F)cc32)c1C [Sutent, reference compound]
TGI (%) Tumor growth inhibition [4]: 70.3%
Tumor weight [4]: 1.00 ± 0.68 g
TGI (%) Tumor growth inhibition [5]: 95.3%
Body weight (g) end ([6]; end): 24.4 ± 2.3 g
Body weight (g) start ([6]; start): 20.3 ± 1.4 g
Body weight (g) end ([7]; end): 22.4 ± 1.1 g
Body weight (g) start ([7]; start): 21.5 ± 0.7 g
Body weight (g) end ([8]; end): 24.8 ± 1.2 g
Body weight (g) start ([8]; start): 21.0 ± 0.8 g
Body weight (g) end [3, 13]: 22.1 ± 1.5 g
Body weight (g) start [3, 13]: 20.6 ± 1.2 g
Body weight (g) end ([9]; end): 23.7 ± 0.8 g
Body weight (g) start ([9]; start): 21.3 ± 0.6 g
Body weight (g) end ([10]; end): 24.0 ± 0.6 g
Body weight (g) start ([10]; start): 21.2 ± 1.1 g
